For the assay, the system named is M. tuberculosis H37Rv growth inhibition. The assay can be described thus: Confirmatory growth inhibition assay against Mycobacterium tuberculosis H37Rv, potency (AID 1949).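 Further: bacteria grown 7 days with compound before Alamar blue readout.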

Structures are written as SMILES. In brackets after ≈: the same amount, converted by molar mass. Inconclusive results are not listed. Activity calls are given as the source filed them. How the calls were made is not given here. Bounds are passed on as bounds.

For the compound `O=C(O)c1ccc(NC(CC(=O)c2ccccc2)c2ccc(Br)cc2)cc1` (stereo not given), the IC50 was 7.58 µg/mL (≈ 17.9 µM).

Turning to `C1=C(c2ccc(Oc3ccccc3)cc2)N2CCN=C2S1`, the IC50 is 5.23 µg/mL (≈ 17.8 µM).

In the case of `COc1cc(CNC(C)c2ccccc2)cc(Br)c1OCc1ccccc1` (stereo not given), the IC50 is 6.21 µg/mL (≈ 14.6 µM).

In the case of `COc1ccc(OCc2nn3c(-c4ccc(C(C)(C)C)cc4)nnc3s2)cc1`, the IC50 is > 50 µg/mL (inactive).

Regarding `Cc1nc2ccccc2n1CC(O)COc1ccc(C2C=CCC2)cc1` (stereo not given), the IC50 was 1.22 µg/mL (≈ 3.5 µM).

As to `CC(C)(C)n1cnc2cc(NC(=O)c3ccc(Cl)cc3)ccc21`, the IC50 is 0.99 µg/mL (≈ 3.02 µM).

As for `Cc1ccc(-c2cnc(C)c(-c3ccccc3)c2)nc1-c1ccccc1`, the IC50 was > 50 µg/mL (inactive).

Turning to `Cc1nc2c(-c3ccccc3)c[nH]n2c(=O)c1Cc1ccccc1`, the IC50 is > 50 µg/mL (inactive).

In the case of `CCC(C)NC(=O)c1ccc(NC(=O)C2(c3ccccc3)CCCC2)cc1` (stereo not given), the IC50 is 1.08 µg/mL (≈ 2.96 µM).

Take `CCC(Oc1ccc2c(-c3ccccc3)cc(=O)oc2c1)C(=O)OCc1ccccc1` (stereo not given): the IC50 is 3.8 µg/mL (≈ 9.17 µM).

Take `Cc1ccc(Cn2c(=N)n(CC(O)c3ccc(Cl)c(Cl)c3)c3ccccc32)cc1` (stereo not given): the IC50 was 2.89 µg/mL (≈ 6.78 µM).

`CN1CCN(C(=S)NC(=O)c2ccc(-c3ccccc3)cc2)CC1`: the IC50 is 1.04 µg/mL (≈ 3.06 µM).

In the case of `Cc1cc(C)cc(OCC(=O)Nc2ccc3oc(-c4ccc(F)cc4)nc3c2)c1`, the IC50 was > 50 µg/mL (inactive).

On to `Cc1ccc(-n2cnc3cc(NCc4cccs4)ccc32)cc1`, for which the concentration for half-maximal inhibition (IC50) was 2.87 µg/mL (≈ 8.98 µM).

With `Cc1cc(OCC(O)CN2CCN(c3ccc(F)cc3)CC2)ccc1C(C)C` (stereo not given), the IC50 was 11.7 µg/mL (≈ 30.2 µM).

Turning to `Cc1ccc2[nH]c3c(c2c1)CCCC3NCCCOc1ccc(F)cc1` (stereo not given), the IC50 was 1.7 µg/mL (≈ 4.82 µM).

For `COc1ccccc1OCCCCN1CCN(C(c2ccccc2)c2ccccc2)CC1`, the IC50 is 8.02 µg/mL (≈ 18.6 µM).

For `Cc1cc(Br)c2[nH]c(O)c(N=NC(=O)COc3ccc4ccccc4c3)c2c1`, the IC50 is 12 µg/mL (≈ 27.5 µM).

As for `O=C(/C=C/c1ccccc1OC(=O)c1cccnc1)c1ccc(Cl)cc1`, the IC50 was 5.61 µg/mL (≈ 15.4 µM).

Take `O=c1c2cc(I)ccc2nc(/C=C/c2cccnc2)n1CCc1ccccc1`: the IC50 was 31.4 µg/mL (≈ 65.4 µM).

On to `COc1c(C)cccc1C(=O)Nc1ccc(N2CCCC2)cc1`, for which the IC50 was 4.85 µg/mL (≈ 15.6 µM).

On to `O=C(Nc1nnc(-c2ccccc2Cl)o1)c1ccco1`, for which the IC50 was 1.83 µg/mL (≈ 6.32 µM).

On to `COc1ccc(-c2csc(Nc3ncccc3C)n2)cc1`, for which the IC50 was 24.5 µg/mL (≈ 82.5 µM).

For the compound `O=C(Oc1cccc2cccnc12)C(Cc1ccccc1)N1C(=O)C2C3CCC(C3)C2C1=O` (stereo not given), the IC50 is 2.76 µg/mL (≈ 6.27 µM).

For the compound `CCCCOc1ccc(S(=O)(=O)Nc2ccc(Cl)cc2)cc1`, the IC50 was 4.09 µg/mL (≈ 12 µM).

As to `O=C1C(=O)N(CCc2ccccc2)c2ccc(Cl)cc21`, the IC50 was 4.73 µg/mL (≈ 16.6 µM).

For the compound `CC1CCN(c2ccc(N)cc2)CC1`, the IC50 is 5.71 µg/mL (≈ 30 µM).

With `COc1ccc(-c2nc(-c3ccc(O)cc3O)cs2)cc1OC`, the IC50 was 0.17 µg/mL (≈ 0.516 µM).

`c1cc2c3c(cccc3c1)NC1(CCCCCC1)N2`: the IC50 was > 50 µg/mL (inactive).

Turning to `Cc1cccc(-n2nc([N+](=O)[O-])c(=NCCC3=CCCCC3)n2O)c1`, the IC50 is 3.62 µg/mL (≈ 10.5 µM).

Consider `COc1ccccc1N1C(=O)c2cccc3cc([N+](=O)[O-])cc(c23)C1=O`, for which the IC50 was 0.16 µg/mL (≈ 0.459 µM).

With `CS(=O)(=O)c1ncc(Cl)c(C(=O)Nc2cc(C(F)(F)F)ccc2Cl)n1`, the IC50 is 17.1 µg/mL (≈ 41.3 µM).

Turning to `COc1ccc(Nc2ccnc3cc4ccccc4cc23)cc1`, the IC50 is 0.74 µg/mL (≈ 2.46 µM).

With `CN1CCN(c2ccc(NC(=O)c3cccc(OCc4ccccc4)c3)cc2)CC1`, the IC50 is 21.4 µg/mL (≈ 53.2 µM).

Consider `COC(=O)Cc1c(C)c2ccc(OCC(=O)c3ccc(Cl)s3)cc2oc1=O`, for which the IC50 is 2.49 µg/mL (≈ 6.12 µM).

As to `O=C(Nc1nc2ccccc2[nH]1)c1ccc(Br)cc1`, the concentration for half-maximal inhibition (IC50) was 14.5 µg/mL (≈ 46 µM).

On to `CCOc1cccc2cc(-c3nc4ccc(C)cc4[nH]3)c(=O)oc12`, for which the IC50 is < 0.1 µg/mL.

With `O=c1oc(-c2ccccc2Br)nc2sc3c(c12)CCCC3`, the IC50 is 0.98 µg/mL (≈ 2.71 µM).

In the case of `CCCCc1cc(=O)oc2cc(OC(C)C(=O)OCC)c(Cl)cc12` (stereo not given), the IC50 is < 0.1 µg/mL.

As for `c1ccc(CNc2cc(-n3cccn3)nc(-c3ccccc3)n2)cc1`, the IC50 is > 50 µg/mL (inactive).

On to `COc1cc2cc(-c3nc4ccccc4[nH]3)c(N)nc2cc1OC`, for which the IC50 is 3.24 µg/mL (≈ 10.1 µM).

In the case of `COc1ccc(C(=O)CCNc2cccc(C)c2)cc1`, the IC50 is 8.33 µg/mL (≈ 30.9 µM).

Regarding `COc1ccc(-c2cc(C(=O)Nc3ccc(C(=O)N4CCOCC4)cc3)c3cc(C)ccc3n2)cc1`, the IC50 is > 50 µg/mL (inactive).

Regarding `O=C(Nc1ccccc1Cl)c1cc([N+](=O)[O-])ccc1O`, the IC50 is 7.53 µg/mL (≈ 25.7 µM).

Take `Clc1ccc(COc2ccc3ccccc3c2CNCc2cccnc2)c(Cl)c1`: the IC50 was 2.7 µg/mL (≈ 6.38 µM).

For `CC(=O)Oc1ccccc1C(=O)OCc1ccc2ccccc2c1`, the IC50 is 11.7 µg/mL (≈ 36.5 µM).

With `O=C(Nc1ccc2c(c1)CCC2)c1ccc(Br)s1`, the IC50 is 1.45 µg/mL (≈ 4.5 µM).

In the case of `COc1ccc(C)cc1NC(=O)c1ccc(Cc2ccc(C)cc2)o1`, the IC50 was 2.71 µg/mL (≈ 8.08 µM).

Take `CC(C)CC(=O)NC(c1ccc(Cl)cc1Cl)c1c(O)ccc2ccccc12` (stereo not given): the IC50 was 1.72 µg/mL (≈ 4.28 µM).

As to `O=C(CSc1ccccc1)Nc1ccc(-c2nc3ccccc3c(=O)o2)cc1`, the IC50 is 0.47 µg/mL (≈ 1.21 µM).

The term IC50 denotes the midpoint of a concentration-inhibition curve.

The record behind these values is PubChem BioAssay AID1949 (Southern Research Institute, 2009).
